Source: US9567625B2, “Method for detection of microorganism and kit for detection of microorganism” (MORINAGA MILK INDUSTRY CO., LTD., priority 2006, dated 2017)

Legend:
[1] = system: 16S rRNA gene of Listeria; assay: PCR targeting the 16S rRNA gene after EMA treatment and topoisomerase poison or DNA gyrase poison treatment; format: cell-based, Listeria monocytogenes; settings: Listeria injured cells
Experimental: (§1) The live cell count of the live cell suspension was 1.3×10^8 cfu/ml
(§2) Therefore, the time for leaving the suspension at 4° C. under light shielding after the addition of EMA was shortened to 5 minutes, and the visible light irradiation time was also shortened to 5 minutes.
(§3) As described above, 1 tube of 1 ml EMA-untreated live cell suspension, […] of 1 ml EMA-treated live cell suspension, 1 tube of 1 ml EMA-untreated injured cell suspension, and 7 tubes of 1 ml EMA-treated injured cell suspension were prepared.
(§4) The EMA-treated live cell and injured cell suspensions were divided into 6 sets, each of which consisted of 1 tube of the live cell suspension and 1 tube of injured cell suspension.
The “PCR thermal cycle profile for amplification of 16S rRNA gene” mentioned in Example 3, 3-2) (Table 3) was applied.
(§5) Each of the DNA solutions prepared in 2-3) was diluted to 15 ng/μl with TE buffer, and 10 μl of the diluted solution was used as a template DNA in 3-1-1) or 3-2-1) mentioned above. That is, 150 ng of the template DNA was contained in 50 μl of the PCR mixture. As a negative control, 10 μl of TE buffer was used.
According to the PCR thermal cycle profile shown in 3-2-2) or 3-2-3) mentioned above, PCR was performed by using a real-time PCR apparatus i Cycler® (Biorad, model number: iQ).
(§6) For the detection of the hlyA gene amplification product, 3% agarose gel was used.

[2] = system: hlyA gene of Listeria; assay: PCR targeting the hlyA gene after EMA treatment and topoisomerase poison or DNA gyrase poison treatment; format: cell-based, Listeria monocytogenes; settings: Listeria injured cells
Experimental: as §1, §2, §3, §4
(§7) A master mix (total volume: 50 μl) of the following composition was prepared. • Ex-Taq® (Takara Shuzo, catalog number: RR001B; TaKaRa Ex Taq enzyme): 0.25 μl • 10× Ex-Taq® Buffer (Takara Shuzo, catalog number: RR001B): 5 μl • dNTP mixture (Takara Shuzo, catalog number: RR001B): 4 μl • 5 pmol/μl SEQ ID NO: 7 (hlyA-F) DNA: 2.5 μl • 5 pmol/μl SEQ ID NO: 8 (hlyA-R) DNA: 2.5 μl • 2×SYBR® Green (cyanine dye) (BMA, catalog number: 50513): 10 μl • Sterilized water: 15.75 μl • Template DNA (15 ng/μl): 10 μl 3-1-2) PCR Thermal Cycle Profile for Amplification of hlyA Gene
as §5, with “2-3) mentioned above” for “2-3)”, “3-1-1)” for “3-1-1) or 3-2-1)”
According to the PCR thermal cycle profile shown in 3-1-2) mentioned above, PCR was performed by using a real-time PCR apparatus i Cycler® (Biorad, model number: iQ).
as §6

[3] = system: 16S rRNA gene of the other bacteria; assay: PCR targeting the 16S rRNA gene after EMA treatment, electrophoresis; format: cell-based; settings: EMA-treated injured cells of the other bacteria, EMA 10 μl of 1000 μg/ml per 1 ml, 4° C. 30 minutes, visible light 10 minutes
Experimental: (§8) The live cell counts of these live cell suspensions were Escherichia coli: 3.2×10^8 cfu/ml, Citrobacter: 6.7×10^7 cfu/ml, Salmonella: 1.9×10^8 cfu/ml, and Klebsiella: 4.8×10^8 cfu/ml.
(§9) The live cell counts of these live cell suspensions were Bacillus: 3.0×10^7 cfu/ml, Listeria: 1.3×10^8 cfu/ml, and Staphylococcus: 1.1×10^6 cfu/ml.
(§10) 10 μl of an EMA solution prepared at a concentration of 1000 μg/ml by dissolving EMA (Sigma, catalog number: E2028) in sterilized water, and filtering the solution through a 0.45-μm microfilter was added to each of the suspensions of the gram-negative bacteria (live cells and injured cells) and gram-positive bacteria (live cells and injured cells) in a volume of 1 ml, and the mixture was left at 4° C. for 30 minutes under light shielding. Then, the suspension was placed on ice, and irradiated with visible light of 500 W from a lamp (FLOOD PRF, 100 V, 500 W, Iwasaki Electric Co., Ltd.) disposed at a distance of 20 cm from the suspension for 10 minutes. The above steps of adding the EMA solution and irradiating visible light may also be referred to as the “EMA treatment”.
(§11) 990 μl of physiological saline was added to each microtube, and the mixture was sufficiently stirred. […]

[4] = system: 16S rRNA gene of Citrobacter; assay: as above; format: cell-based, Citrobacter koseri; settings: EMA-treated injured cells of Citrobacter, EMA 10 μl of 1000 μg/ml per 1 ml, 4° C. 30 minutes, visible light 10 minutes
Experimental: as §8, §10, §11

[5] = system: 16S rRNA gene of Klebsiella; assay: as above; format: cell-based, Klebsiella oxytoca; settings: EMA-treated injured cells of Klebsiella, EMA 10 μl of 1000 μg/ml per 1 ml, 4° C. 30 minutes, visible light 10 minutes
Experimental: as §8, §10, §11

[6] = system: 23S rRNA gene of gram-negative bacteria and gram-positive bacteria; assay: PCR targeting the 23S rRNA gene after EMA treatment, electrophoresis; format: cell-based; settings: 150 ng template DNA in 50 μl
Experimental: as §8, §9, §10, §11

[7] = system: 23S rRNA gene of Enterobacter; assay: Real-time PCR and TM analysis targeting the 23S rRNA gene after ciprofloxacin treatment; format: cell-based, Enterobacter sakazakii; settings: ciprofloxacin 72 hours; for result of PCR: PCR terminated after 27 cycles
Experimental: as §7, with “enzyme:” for “enzyme):”, “1 (23S-F)” for “7 (hlyA-F)”, “2 (23S-R) DNA: 2.5 μl • 5 pmol/μl SEQ ID NO: 3 (23S-MF) DNA: 2.5 μl • 5 pmol/μl SEQ ID NO: 4 (23S-MR)” for “8 (hlyA-R)”, “μl” for “μl 3-1-2) PCR Thermal Cycle Profile for Amplification of hlyA Gene”
The primers of SEQ ID NOS: 1 and 2 are primers for amplifying substantially all the region of 23S rRNA, and they provide an amplification fragment of about 2840 bp mainly from gram-negative bacteria. The primers of SEQ ID NOS: 3 and 4 correspond to the center region of 23S rRNA, and they provide an amplification fragment of about 900 bp from gram-positive bacteria (also from gram negative bacteria).
Each of the DNA solutions prepared in 1-3) was diluted to 15 ng/μl with TE buffer, and 10 μl of the diluted solution was used as a template DNA in 2-1). That is, 150 ng of the template DNA was contained in 50 μl of the PCR reaction mixture. As a negative control, 10 μl of TE buffer was used.
According to the PCR thermal cycle profile shown in 2-2) mentioned above, PCR and TM analysis (melting temperature analysis) of the amplification product were performed by using a real-time PCR apparatus i Cycler® (Biorad, model number: iQ). The threshold value (boundary value) of real-time PCR was set to a value obtained by multiplying the standard deviation SD of fluorescence amounts obtained with SYBR® Green (cyanine dye) for 0 to 10 cycles by 10. In each real-time PCR amplification curve, number of cycle showing a value exceeding the threshold value is referred to as “Ct value” hereafter.

[8] = system: 23S rRNA gene of Listeria; assay: Real-time PCR targeting the 23S rRNA gene after ciprofloxacin treatment; format: cell-based, Listeria monocytogenes; settings: PCR terminated after 20 cycles
Experimental: as §7, with “enzyme:” for “enzyme):”, “1 (23S-F)” for “7 (hlyA-F)”, “2 (23S-R) DNA: 2.5 μl • 5 pmol/μl SEQ ID NO: 3 (23S-MF) DNA: 2.5 μl • 5 pmol/μl SEQ ID NO: 4 (23S-MR)” for “8 (hlyA-R)”, “μl” for “μl 3-1-2) PCR Thermal Cycle Profile for Amplification of hlyA Gene”
The primers of SEQ ID NOS: 1 and 2 are primers for amplifying substantially all the region of 23S rRNA, and they provide an amplification fragment of about 2840 bp mainly from gram-negative bacteria. […]
According to the PCR thermal cycle profile shown in 2-2) mentioned above, PCR and TM analysis (melting temperature analysis) of the amplification product were performed by using a real-time PCR apparatus i Cycler® (Biorad, model number: iQ). The threshold value (boundary value) of real-time PCR was set to a value obtained by multiplying the standard deviation SD of fluorescence amounts obtained with SYBR® Green (cyanine dye) for 0 to 10 cycles by 10. […]

[9] = poison used together with EMA treatment, 30° C. for 30 minutes
[10] = EMA treatment alone (5 minutes, visible light 5 minutes)

**Q.** For `CC[C@@]1(O)C(=O)OCc2c1cc1n(c2=O)Cc2cc3ccccc3nc2-1` [camptothecin], which “inhibition of DNA amplification” value [1, 9] is on record?
**A.** Its value is “markedly inhibited”.

**Q.** With `Cc1c2ccncc2c(C)c2c1[nH]c1ccccc12` [ellipticine] as the compound, how does the “inhibition of DNA amplification” value [1, 9] read?
**A.** Its value is “markedly inhibited”.

**Q.** For `O=C1c2c(O)ccc(O)c2C(=O)c2c(NCCNCCO)ccc(NCCNCCO)c21` [mitoxantrone], which “inhibition of DNA amplification” value [2, 9] is on record?
**A.** Its value is “markedly inhibited”.

**Q.** How did the PCR amplification product [3] turn out when `CC[n+]1c(-c2ccccc2)c2cc(N=[N+]=[N-])ccc2c2ccc(N)cc21` [EMA, ethidium monoazide] was run?
**A.** The PCR amplification product was “amplification products were observed”.

**Q.** What about the “inhibition of DNA amplification” value [2, 10] of the same compound?
**A.** Its value is “only slightly inhibited”.

**Q.** And the PCR amplification product [4]?
**A.** Its PCR amplification product is “no PCR amplification product was observed”.

**Q.** What about the PCR amplification product [5] of the same compound?
**A.** Its PCR amplification product is “no PCR amplification product was observed”.

**Q.** And the “inhibition of PCR” value ([6]; injured cells at a level of 10^8 cfu/ml)?
**A.** The value was “completely inhibited”.

**Q.** What about the “inhibition of PCR” value ([6]; live cells) of the same compound?
**A.** Its value is “not substantially completely inhibited”.

**Q.** And the “inhibition of DNA amplification” value [1, 10]?
**A.** The value was “only slightly inhibited”.

**Q.** How did the “Ct (injured cells, 72 hours of Cip)−Ct (injured cells, No Cip)” value ([7]; Enterobacter injured cells) turn out when `O=C(O)c1cn(C2CC2)c2cc(N3CCNCC3)c(F)cc2c1=O` [ciprofloxacin] was run?
**A.** The value was 17.

**Q.** What about the “result of PCR” value ([7]; Enterobacter injured cells) of the same compound?
**A.** The value was “negative”.

**Q.** What about the “Ct (live cells, 72 hours of Cip)−Ct (live cells, No Cip)” value ([7]; Enterobacter live cells) of the same compound?
**A.** Its value is 13.

**Q.** And the “result of PCR” value ([7]; Enterobacter live cells)?
**A.** Its value is “positive”.

**Q.** What about the “TM pattern analysis of the PCR amplification product” value ([7]; Enterobacter sakazakii injured cells) of the same compound?
**A.** Its value is “is not the targeted amplification product”.

**Q.** What about the “TM pattern analysis of the PCR amplification product” value ([7]; Enterobacter sakazakii live cells) of the same compound?
**A.** Its value is “corresponds to the 23S rRNA gene as the target”.

**Q.** And the “result of PCR” value ([8]; Listeria injured cells)?
**A.** The value was “negative”.

**Q.** And the “result of PCR” value ([8]; Listeria live cells)?
**A.** The value was “positive”.

**Q.** With `COc1cc([C@@H]2c3cc4c(cc3[C@@H](O[C@@H]3O[C@@H]5CO[C@@H](C)O[C@H]5[C@H](O)[C@H]3O)[C@H]3COC(=O)[C@H]23)OCO4)cc(OC)c1O` [etoposide] as the compound, how does the “inhibition of DNA amplification” value [2, 9] read?
**A.** The value was “markedly inhibited”.

**Q.** And the “inhibition of DNA amplification” value [1, 9]?
**A.** The value was “markedly inhibited”.
